Laboratory results as given in ChEMBL document CHEMBL5303573, “Mapping human microbiome drug metabolism by gut bacteria and their genes” (Nature, 2019).

Conditions: limosilactobacillus reuteri cf48-3a, 12 h, 2 µM
Description: The drug is tested on Lactobacillus reuteri CF48-3A strain: BEI HM-102 for biotransformation. The drug concentrations were measured before and after a 12-h incubation by liquid-chromatography-coupled mass spectrometry (LC–MS)

| SMILES | Bacterial Biotransformation |
| --- | --- |
| CC(C)N(CCC(C(N)=O)(c1ccccc1)c1ccccn1)C(C)C.O=P(O)(O)O (configuration not stated) [DISOPYRAMIDE PHOSPHATE] | Compound NOT metabolized |
| CN1CCN(C2=Nc3ccccc3Oc3ccc(Cl)cc32)CC1.O=C(O)CCC(=O)O [LOXAPINE SUCCINATE] | Compound NOT metabolized |
| COc1ccc2cc([C@H](C)C(=O)O)ccc2c1 [NAPROXEN] | Compound NOT metabolized |

Experiment: The drug is tested on Bacteroides finegoldii strain: DSM17565 for biotransformation. The drug concentrations were measured before and after a 12-h incubation by liquid-chromatography-coupled mass spectrometry (LC–MS)
Conditions: 2 µM

| SMILES | Bacterial Biotransformation |
| --- | --- |
| Cc1ccc(NC(=O)c2ccc(CN3CCN(C)CC3)cc2)cc1Nc1nccc(-c2cccnc2)n1 [IMATINIB] | Compound NOT metabolized |
| CC(C)N(CCC(C(N)=O)(c1ccccc1)c1ccccn1)C(C)C.O=P(O)(O)O (configuration not stated) [DISOPYRAMIDE PHOSPHATE] | Compound NOT metabolized |
| CN1CCN(C2=Nc3ccccc3Oc3ccc(Cl)cc32)CC1.O=C(O)CCC(=O)O [LOXAPINE SUCCINATE] | Compound NOT metabolized |

Conditions: akkermansia muciniphila, 12 h, 2 µM
Description: The drug is tested on Akkermansia muciniphila strain: ATCC BAA-835 for biotransformation. The drug concentrations were measured before and after a 12-h incubation by liquid-chromatography-coupled mass spectrometry (LC–MS)

| SMILES | Bacterial Biotransformation |
| --- | --- |
| Cc1ccc(NC(=O)c2ccc(CN3CCN(C)CC3)cc2)cc1Nc1nccc(-c2cccnc2)n1 [IMATINIB] | Compound NOT metabolized |
| CC(C)N(CCC(C(N)=O)(c1ccccc1)c1ccccn1)C(C)C.O=P(O)(O)O (configuration not stated) [DISOPYRAMIDE PHOSPHATE] | Compound NOT metabolized |
| CN1CCN(C2=Nc3ccccc3Oc3ccc(Cl)cc32)CC1.O=C(O)CCC(=O)O [LOXAPINE SUCCINATE] | Compound NOT metabolized |
| COc1ccc2cc([C@H](C)C(=O)O)ccc2c1 [NAPROXEN] | Compound NOT metabolized |

Conditions: bacteroides fragilis, 12 h, 2 µM
Description: The drug is tested on Bacteroides fragilis strain: NCTC 9343 for biotransformation. The drug concentrations were measured before and after a 12-h incubation by liquid-chromatography-coupled mass spectrometry (LC–MS)

| SMILES | Bacterial Biotransformation |
| --- | --- |
| CN1CCN(C2=Nc3ccccc3Oc3ccc(Cl)cc32)CC1.O=C(O)CCC(=O)O [LOXAPINE SUCCINATE] | Compound NOT metabolized |
| COc1ccc2cc([C@H](C)C(=O)O)ccc2c1 [NAPROXEN] | Compound NOT metabolized |

Experiment: The drug is tested on Providencia stuartii strain: ATCC25827 for biotransformation. The drug concentrations were measured before and after a 12-h incubation by liquid-chromatography-coupled mass spectrometry (LC–MS)
Conditions: 2 µM

| SMILES | Bacterial Biotransformation |
| --- | --- |
| Cc1ccc(NC(=O)c2ccc(CN3CCN(C)CC3)cc2)cc1Nc1nccc(-c2cccnc2)n1 [IMATINIB] | Compound NOT metabolized |
| CC(C)N(CCC(C(N)=O)(c1ccccc1)c1ccccn1)C(C)C.O=P(O)(O)O (configuration not stated) [DISOPYRAMIDE PHOSPHATE] | Compound NOT metabolized |
| COc1ccc2cc([C@H](C)C(=O)O)ccc2c1 [NAPROXEN] | Compound NOT metabolized |

Conditions: bacteroides thetaiotaomicron, 12 h, 2 µM
Description: The drug is tested on Bacteroides thetaiotaomicron strain: 3731 for biotransformation. The drug concentrations were measured before and after a 12-h incubation by liquid-chromatography-coupled mass spectrometry (LC–MS)

| SMILES | Bacterial Biotransformation |
| --- | --- |
| Cc1ccc(NC(=O)c2ccc(CN3CCN(C)CC3)cc2)cc1Nc1nccc(-c2cccnc2)n1 [IMATINIB] | Compound NOT metabolized |
| CN1CCN(C2=Nc3ccccc3Oc3ccc(Cl)cc32)CC1.O=C(O)CCC(=O)O [LOXAPINE SUCCINATE] | Compound NOT metabolized |
| COc1ccc2cc([C@H](C)C(=O)O)ccc2c1 [NAPROXEN] | Compound NOT metabolized |

Experiment: The drug is tested on Bifidobacterium ruminantium strain: fecal isolate for biotransformation. The drug concentrations were measured before and after a 12-h incubation by liquid-chromatography-coupled mass spectrometry (LC–MS)
Conditions: 2 µM

| SMILES | Bacterial Biotransformation |
| --- | --- |
| Cc1ccc(NC(=O)c2ccc(CN3CCN(C)CC3)cc2)cc1Nc1nccc(-c2cccnc2)n1 [IMATINIB] | Compound NOT metabolized |

Experiment: The drug is tested on Collinsella aerofaciens strain: ATCC25986 for biotransformation. The drug concentrations were measured before and after a 12-h incubation by liquid-chromatography-coupled mass spectrometry (LC–MS)
Conditions: 2 µM

| SMILES | Bacterial Biotransformation |
| --- | --- |
| Cc1ccc(NC(=O)c2ccc(CN3CCN(C)CC3)cc2)cc1Nc1nccc(-c2cccnc2)n1 [IMATINIB] | Compound NOT metabolized |
| CC(C)N(CCC(C(N)=O)(c1ccccc1)c1ccccn1)C(C)C.O=P(O)(O)O (configuration not stated) [DISOPYRAMIDE PHOSPHATE] | Compound NOT metabolized |
| COc1ccc2cc([C@H](C)C(=O)O)ccc2c1 [NAPROXEN] | Compound NOT metabolized |

Experiment: The drug is tested on Eubacterium ventriosum strain: ATCC27560 for biotransformation. The drug concentrations were measured before and after a 12-h incubation by liquid-chromatography-coupled mass spectrometry (LC–MS)
Type: ADME
Set-up: dose 2 uM, timepoint 0 vs 12 hours
Conditions: 2 µM

| SMILES | Bacterial Biotransformation |
| --- | --- |
| Cc1ccc(NC(=O)c2ccc(CN3CCN(C)CC3)cc2)cc1Nc1nccc(-c2cccnc2)n1 [IMATINIB] | Compound NOT metabolized |
| CC(C)N(CCC(C(N)=O)(c1ccccc1)c1ccccn1)C(C)C.O=P(O)(O)O (configuration not stated) [DISOPYRAMIDE PHOSPHATE] | Compound NOT metabolized |
| CN1CCN(C2=Nc3ccccc3Oc3ccc(Cl)cc32)CC1.O=C(O)CCC(=O)O [LOXAPINE SUCCINATE] | Compound NOT metabolized |
| COc1ccc2cc([C@H](C)C(=O)O)ccc2c1 [NAPROXEN] | Compound NOT metabolized |

Experiment: The drug is tested on Bacteroides xylanisolvens strain: DSM18836 for biotransformation. The drug concentrations were measured before and after a 12-h incubation by liquid-chromatography-coupled mass spectrometry (LC–MS)
Conditions: 2 µM

| SMILES | Bacterial Biotransformation |
| --- | --- |
| Cc1ccc(NC(=O)c2ccc(CN3CCN(C)CC3)cc2)cc1Nc1nccc(-c2cccnc2)n1 [IMATINIB] | Compound metabolized |
| CC(C)N(CCC(C(N)=O)(c1ccccc1)c1ccccn1)C(C)C.O=P(O)(O)O (configuration not stated) [DISOPYRAMIDE PHOSPHATE] | Compound NOT metabolized |
| CN1CCN(C2=Nc3ccccc3Oc3ccc(Cl)cc32)CC1.O=C(O)CCC(=O)O [LOXAPINE SUCCINATE] | Compound NOT metabolized |
| COc1ccc2cc([C@H](C)C(=O)O)ccc2c1 [NAPROXEN] | Compound NOT metabolized |

Experiment: The drug is tested on Bacteroides fragilis strain: HMW615 for biotransformation. The drug concentrations were measured before and after a 12-h incubation by liquid-chromatography-coupled mass spectrometry (LC–MS)
Conditions: 2 µM

| SMILES | Bacterial Biotransformation |
| --- | --- |
| CC(C)N(CCC(C(N)=O)(c1ccccc1)c1ccccn1)C(C)C.O=P(O)(O)O (configuration not stated) [DISOPYRAMIDE PHOSPHATE] | Compound NOT metabolized |
| CN1CCN(C2=Nc3ccccc3Oc3ccc(Cl)cc32)CC1.O=C(O)CCC(=O)O [LOXAPINE SUCCINATE] | Compound NOT metabolized |
| COc1ccc2cc([C@H](C)C(=O)O)ccc2c1 [NAPROXEN] | Compound metabolized |

Experiment: The drug is tested on Bacteroides dorei strain: DSM17855 for biotransformation. The drug concentrations were measured before and after a 12-h incubation by liquid-chromatography-coupled mass spectrometry (LC–MS)
Conditions: phocaeicola dorei, 2 µM

| SMILES | Bacterial Biotransformation |
| --- | --- |
| Cc1ccc(NC(=O)c2ccc(CN3CCN(C)CC3)cc2)cc1Nc1nccc(-c2cccnc2)n1 [IMATINIB] | Compound NOT metabolized |
| CC(C)N(CCC(C(N)=O)(c1ccccc1)c1ccccn1)C(C)C.O=P(O)(O)O (configuration not stated) [DISOPYRAMIDE PHOSPHATE] | Compound NOT metabolized |
| CN1CCN(C2=Nc3ccccc3Oc3ccc(Cl)cc32)CC1.O=C(O)CCC(=O)O [LOXAPINE SUCCINATE] | Compound NOT metabolized |
| COc1ccc2cc([C@H](C)C(=O)O)ccc2c1 [NAPROXEN] | Compound NOT metabolized |

Experiment: The drug is tested on Anaerotruncus colihominis strain: DSM17241 for biotransformation. The drug concentrations were measured before and after a 12-h incubation by liquid-chromatography-coupled mass spectrometry (LC–MS)
Conditions: 2 µM

| SMILES | Bacterial Biotransformation |
| --- | --- |
| Cc1ccc(NC(=O)c2ccc(CN3CCN(C)CC3)cc2)cc1Nc1nccc(-c2cccnc2)n1 [IMATINIB] | Compound NOT metabolized |
| CC(C)N(CCC(C(N)=O)(c1ccccc1)c1ccccn1)C(C)C.O=P(O)(O)O (configuration not stated) [DISOPYRAMIDE PHOSPHATE] | Compound NOT metabolized |
| CN1CCN(C2=Nc3ccccc3Oc3ccc(Cl)cc32)CC1.O=C(O)CCC(=O)O [LOXAPINE SUCCINATE] | Compound NOT metabolized |
| COc1ccc2cc([C@H](C)C(=O)O)ccc2c1 [NAPROXEN] | Compound NOT metabolized |

Experiment: The drug is tested on Ruminococcus gnavus strain: ATCC29149 for biotransformation. The drug concentrations were measured before and after a 12-h incubation by liquid-chromatography-coupled mass spectrometry (LC–MS)
Conditions: mediterraneibacter gnavus, 2 µM

| SMILES | Bacterial Biotransformation |
| --- | --- |
| Cc1ccc(NC(=O)c2ccc(CN3CCN(C)CC3)cc2)cc1Nc1nccc(-c2cccnc2)n1 [IMATINIB] | Compound NOT metabolized |
| CC(C)N(CCC(C(N)=O)(c1ccccc1)c1ccccn1)C(C)C.O=P(O)(O)O (configuration not stated) [DISOPYRAMIDE PHOSPHATE] | Compound NOT metabolized |
| CN1CCN(C2=Nc3ccccc3Oc3ccc(Cl)cc32)CC1.O=C(O)CCC(=O)O [LOXAPINE SUCCINATE] | Compound NOT metabolized |
| COc1ccc2cc([C@H](C)C(=O)O)ccc2c1 [NAPROXEN] | Compound NOT metabolized |

Experiment: The drug is tested on Eubacterium hallii strain: DSM3353 for biotransformation. The drug concentrations were measured before and after a 12-h incubation by liquid-chromatography-coupled mass spectrometry (LC–MS)
Conditions: anaerobutyricum hallii, 2 µM

| SMILES | Bacterial Biotransformation |
| --- | --- |
| CC(C)N(CCC(C(N)=O)(c1ccccc1)c1ccccn1)C(C)C.O=P(O)(O)O (configuration not stated) [DISOPYRAMIDE PHOSPHATE] | Compound NOT metabolized |
| CN1CCN(C2=Nc3ccccc3Oc3ccc(Cl)cc32)CC1.O=C(O)CCC(=O)O [LOXAPINE SUCCINATE] | Compound NOT metabolized |
| COc1ccc2cc([C@H](C)C(=O)O)ccc2c1 [NAPROXEN] | Compound NOT metabolized |

Experiment: The drug is tested on Bacteroides sp. WH2 strain: WH2 for biotransformation. The drug concentrations were measured before and after a 12-h incubation by liquid-chromatography-coupled mass spectrometry (LC–MS)
Conditions: bacteroides sp. wh2, 12 h, 2 µM

| SMILES | Bacterial Biotransformation |
| --- | --- |
| Cc1ccc(NC(=O)c2ccc(CN3CCN(C)CC3)cc2)cc1Nc1nccc(-c2cccnc2)n1 [IMATINIB] | Compound NOT metabolized |
| CC(C)N(CCC(C(N)=O)(c1ccccc1)c1ccccn1)C(C)C.O=P(O)(O)O (configuration not stated) [DISOPYRAMIDE PHOSPHATE] | Compound NOT metabolized |
| CN1CCN(C2=Nc3ccccc3Oc3ccc(Cl)cc32)CC1.O=C(O)CCC(=O)O [LOXAPINE SUCCINATE] | Compound NOT metabolized |

Conditions: roseburia intestinalis, 12 h, 2 µM
Description: The drug is tested on Roseburia intestinalis strain: L1-82 for biotransformation. The drug concentrations were measured before and after a 12-h incubation by liquid-chromatography-coupled mass spectrometry (LC–MS)

| SMILES | Bacterial Biotransformation |
| --- | --- |
| Cc1ccc(NC(=O)c2ccc(CN3CCN(C)CC3)cc2)cc1Nc1nccc(-c2cccnc2)n1 [IMATINIB] | Compound NOT metabolized |
| CC(C)N(CCC(C(N)=O)(c1ccccc1)c1ccccn1)C(C)C.O=P(O)(O)O (configuration not stated) [DISOPYRAMIDE PHOSPHATE] | Compound NOT metabolized |
| CN1CCN(C2=Nc3ccccc3Oc3ccc(Cl)cc32)CC1.O=C(O)CCC(=O)O [LOXAPINE SUCCINATE] | Compound NOT metabolized |
| COc1ccc2cc([C@H](C)C(=O)O)ccc2c1 [NAPROXEN] | Compound NOT metabolized |

Experiment: The drug is tested on Bifidobacterium longum subsp. Infantis strain: CCUG52486 for biotransformation. The drug concentrations were measured before and after a 12-h incubation by liquid-chromatography-coupled mass spectrometry (LC–MS)
Conditions: 2 µM

| SMILES | Bacterial Biotransformation |
| --- | --- |
| CC(C)N(CCC(C(N)=O)(c1ccccc1)c1ccccn1)C(C)C.O=P(O)(O)O (configuration not stated) [DISOPYRAMIDE PHOSPHATE] | Compound NOT metabolized |
| CN1CCN(C2=Nc3ccccc3Oc3ccc(Cl)cc32)CC1.O=C(O)CCC(=O)O [LOXAPINE SUCCINATE] | Compound NOT metabolized |
| COc1ccc2cc([C@H](C)C(=O)O)ccc2c1 [NAPROXEN] | Compound NOT metabolized |

Conditions: bacteroides intestinalis, 12 h, 2 µM
Description: The drug is tested on Bacteroides intestinalis strain: DSM17393 for biotransformation. The drug concentrations were measured before and after a 12-h incubation by liquid-chromatography-coupled mass spectrometry (LC–MS)

| SMILES | Bacterial Biotransformation |
| --- | --- |
| Cc1ccc(NC(=O)c2ccc(CN3CCN(C)CC3)cc2)cc1Nc1nccc(-c2cccnc2)n1 [IMATINIB] | Compound NOT metabolized |
| CC(C)N(CCC(C(N)=O)(c1ccccc1)c1ccccn1)C(C)C.O=P(O)(O)O (configuration not stated) [DISOPYRAMIDE PHOSPHATE] | Compound NOT metabolized |
| CN1CCN(C2=Nc3ccccc3Oc3ccc(Cl)cc32)CC1.O=C(O)CCC(=O)O [LOXAPINE SUCCINATE] | Compound NOT metabolized |
| COc1ccc2cc([C@H](C)C(=O)O)ccc2c1 [NAPROXEN] | Compound NOT metabolized |
